Structures can show the parent of a compound that is named as a salt.

`COc1cc(Cc2c(-c3ccc(NS(=O)(=O)c4ccccc4)cc3)sc3cc(O)ccc23)ccc1CN1CCCC1` (as salt: oxalate) [Example 31, 6-Hydroxy-3-[3-methoxy-4-(1-pyrrolidinylmethyl)benzyl]-2-[4-(phenylsulfonylamino)phenyl]benzo[b]thiophene Oxalate]: the melting point was 150 °C (dec.).

For `COc1cc(C(=O)c2c(-c3ccc(NS(=O)(=O)c4ccccc4)cc3)sc3cc(O)ccc23)ccc1CN1CCCC1` (as salt: oxalate) [Example 32, 6-Hydroxy-2-[4-(phenylsulfonylamino)phenyl)benzo[b]thiophen-3-yl 3-Methoxy-4-(1-pyrrolidinylmethyl)phenyl Ketone Oxalate], the melting point was 180 °C (dec.).

Values taken from patent publication US6391901B1, “Thrombin inhibitors” (Eli Lilly and Company, priority 1997, dated 2002).
